Values of other authors, collected in patent US12728162B2, “Methods of treating lung cancer with a PD-1 axis binding antagonist, a platinum agent, and a topoisomerase II inhibitor” (Genentech, Inc., priority 2018, dated 2026).

[NH3+][Pt-2]1([NH3+])[O]C(=O)C2(CCC2)C(=O)[O]1 [Carboplatin, platinum, diammine [1,1-cyclobutanedicarboxylato (2-)-O,O′]—, (SP-4-2)]
solubility in organic solvents (ethanol, acetone, and dimethylacetamide): virtually insoluble | solubility in water (water): approximately 14 mg/mL
